Assays:
[1] = system: STAT3 (pSTAT3-Y705); test: Immunoblot of STAT3 activating phosphorylation in U937-derived M2 macrophages; format: cell-based, human; details: MK-8931 50 μg/mL three days
Text: FIG. 7, panels A-G. BACE1 Maintains M2 Macrophages through STAT3 Activation (A) Immunoblot analyses of STAT3 and STAT6 activation (pSTAT3-Y705 and pSTAT6-Y641) in U937-derived M2 macrophages affected by BACE1 knockdown. […] (B) Immunoblot analysis of STAT3 and STAT6 activation (pSTAT3-Y705 and pSTAT6-Y641) in U937-derived M2 macrophages in response to MK-8931 treatment. […] (C-E) In vivo analysis of STAT3 activating phosphorylation in TAMs by double immunofluorescent staining of IBA1 with pSTAT3-Y705 in GBM xenografts treated with MK-8931 or vehicle control. GBM xenografts were established by implantation of glioma stem cells (T4121) through intracranial injection. […] Representative images (C) showing the fluorescent staining of IBA1 (in green) and the pSTAT3 (in red) in MK-8931-treated or control GBM xenografts. […] Scale bar represents 3 μM. Ctl: Control. MK: MK-8931. […] Ectopic expression of STAT3-C attenuated the M2 to M1 switch caused by BACE1 knockdown.

[2] = system: iPSC-derived M2 macrophages; test: Fluorescent phagocytosis assay, iPSC-derived M2 macrophages against lung ADC cells (H1002); format: cell-based, human; design: dose or concentration left out as unconfirmed; details: MK-8931 two days, p<0.01
Text: FIG. 10, panels A-C. MK-8931 Treatment Promotes Phagocytosis of iPSC-derived M2 Macrophages against Human Lung ADC Cancer Cells. (A) Immunofluorescent analysis of macrophage marker expression in iPSC-derived M2 macrophages. The iPSC-derived M2 macrophages (GFP+) and the matched iPSCs (GFP+, control) were stained with specific antibodies against IBA1 (total macrophage marker, in red) and FIZZ1 (M2 macrophage marker, in red) and then counterstained with DAPI (in blue). […] (B and C) In vitro macrophage phagocytosis assay showing that the BACE1 inhibitor MK-8931 promoted phagocytosis of the iPSC-derived macrophages against human lung ADC cancer cells. […] Scale bars represent 3 μM. […]
In this assay, we detected macrophage phagocytosis as fluorescent inclusion bodies of the cancer cells (tdTomato^+) within macrophages (GFP^+). […] Thus, potential small molecules that can activate macrophages (GFP*) to phagocytize glioma cells (tdTomato*) could be detected under a fluorescent microscope during the screening (FIG. 1C).
To screen for potential small molecules activating phagocytosis of iPSC-derived M2 macrophages against human cancer cells, GFP^+ iPSC-derived M2 macrophages (5×10^4 cells) were seeded in each well of 24-well plates and treated by small molecules for two days. […] The phagocytosis was measured as the number of inclusion bodies of cancer cells (in red) within macrophages (in green).

[3] = system: AGS gastric cancer cells; test: Subcutaneous stomach cancer xenografts (AGS); format: in vivo, mouse; details: 50 mg/kg once daily oral gavage, from two weeks after inoculation; p<0.05
Text: FIG. 22, panels A-C, show treatment with the BACE1 Inhibitor MK-8931 reduced tumor growth of gastric cancer. (A-C) A preclinical trial of MK-8931 for stomach cancer treatment in xenograft models. AGS gastric cancer cells (3×106) were transplanted into mouse right flank through subcutaneous injection to establish subcutaneous stomach cancer xenografts. […] Tumors dissected from mice of each group were photographed (B) and weighed (C).

[4] = system: U937-derived M2 macrophages; test: Immunoblot of macrophage markers in U937-derived M2 macrophages; design: expression of M2 macrophage markers (CD163 and ARG1): dose or concentration left out as unconfirmed
Description: In brief, U937 cells were primed by PMA (5 nM) for two days to generate M0 macrophages and then incubated with IL4 (20 ng/mL), IL10 (20 ng/mL), and TGFβ (20 ng/mL) for three days to produce M2-like macrophages. (B) Immunoblot analyses of BACE1, the M2 macrophage markers (CD163 and ARG1), and the total macrophage marker IBA1 in U937 monocytes and the U937-derived M2 macrophages expressing shRNAs against BACE1 (shBACE1) or non-targeting sequence (NT). […] (D) Immunoblot analyses of the M2 macrophage markers (CD163 and ARG1), the M1 macrophage markers (iNOS and HLA-DR), and the total macrophage marker IBA1 in the U937-derived M2 macrophages expressing shRNAs against BACE1 (shBACE1: #1 or #2) or non-targeting control (shNT). The U937-derived M2 macrophages were transduced with shBACE1 shNT through lentiviral infection.
In brief, U937 cells grown in a 10-cm tissue culture dish were primed by PMA (5 nM) for two days to produce M0 macrophages. Then the M0 macrophages were further induced by IL4 (20 ng/mL, Peprotech, 200-04), IL10 (20 ng/mL, Peprotech, 200-10), and TGFβ (20 ng/mL, Peprotech, 200-21) for three days to generate M2 macrophages.
In brief, cells were lysed with the RIPA buffer [50 mM TrisHCl (pH7.4), 150 mM NaCl, 2 mM EDTA, 1% (v/v) NP-40, 0.1% (w/v) SDS, protease inhibitor (one tablet per 10 mL RIPA buffer, Roche)] for 20 minutes on ice. […] The lysates were collected and subjected to SDS-PAGE and blotted onto the PVDF membranes (ASI, XR730). After blockade with 5% (w/v) non-fat milk (RPI, M17200) in TBST, the membranes were incubated with primary antibodies overnight at 4° C. After the incubation of the first antibodies, the membranes were washed three times with TBST for ten minutes each. Then, the membranes were incubated with the second HRP-linked antibodies in the 5% milk for one hour at room temperature.

[5] = 0, 5, 10, 25, 50, and 100 μg/mL for three days
[6] = 50 μg/mL for 0, 12, 24, 48, 72, or 96 hours

## CN1C(N)=N[C@](C)(c2cc(NC(=O)c3ccc(F)cn3)ccc2F)CS1(=O)=O [MK-8931]
[1]
  activating phosphorylation of STAT3 (pSTAT3-Y705): significantly down-regulated
[2]
  phagocytosis of iPSC-derived macrophages against human lung ADC cancer cells: potently induced phagocytosis of iPSC-derived macrophages
[3]
  tumor growth (tumor weight): significantly reduced tumor growth of gastric cancer
[4]; [5]
  M1 marker expression (iNOS and HLA-DR), dose series: induced M1 marker expression
  M2 marker expression (CD163 and ARG1), dose series: inhibited M2 marker expression in a dose-dependent manner
[4]; [6]
  M1 marker expression (iNOS and HLA-DR), time course: induced M1 marker expression in a time-dependent fashion
  M2 marker expression (CD163 and ARG1), time course: inhibited M2 marker expression
[4]; MK-8931 50 μg/mL three days, STAT3-C-Flag vs vector
  M2 to M1 switch with ectopic expression of constitutively activated STAT3 (STAT3-C): attenuated the M2 to M1 switch induced by MK-8931 treatment
[4]; MK-8931 (50 g/mL) three days
  expression of total macrophage marker IBA1: little effect
[4]; MK-8931 three days
  expression of M2 macrophage markers (CD163 and ARG1): reduced expression of the M2 macrophage markers

— US11559528B2, “BACE1 inhibition for the treatment of cancer” (The Cleveland Clinic Foundation, priority 2019, dated 2023)
